Data on 21 compounds can be found in ChEMBL document CHEMBL3621083, “Dehydroabietylamine derivatives as multifunctional agents for the treatment of Alzheimer's disease” (Medchemcomm, 2014).

Broadly, the inhibition is the share of the control response that was lost under treatment. For orientation: IC50 means the point on the concentration scale where inhibition reaches its midpoint.

The source made the active and inactive calls. No cut-off for these calls is given here.

In data set [1] the test system is SH-SY5Y. The data set is described as follows: Anti-oxidative activity in human SH-SY5Y cells assessed as reduction of ROS generation at 10 uM using DCFH-DA. Type of data set: functional.
The target of data set [2] is T1, Amyloid-beta precursor protein (Homo sapiens, UniProt P05067). The data set is described as follows: Inhibition of amyloid beta-42 (unknown origin) self-mediated aggregation at 50 uM by thioflavin-T fluorescence assay.
T1 sequence (P05067 whole entry): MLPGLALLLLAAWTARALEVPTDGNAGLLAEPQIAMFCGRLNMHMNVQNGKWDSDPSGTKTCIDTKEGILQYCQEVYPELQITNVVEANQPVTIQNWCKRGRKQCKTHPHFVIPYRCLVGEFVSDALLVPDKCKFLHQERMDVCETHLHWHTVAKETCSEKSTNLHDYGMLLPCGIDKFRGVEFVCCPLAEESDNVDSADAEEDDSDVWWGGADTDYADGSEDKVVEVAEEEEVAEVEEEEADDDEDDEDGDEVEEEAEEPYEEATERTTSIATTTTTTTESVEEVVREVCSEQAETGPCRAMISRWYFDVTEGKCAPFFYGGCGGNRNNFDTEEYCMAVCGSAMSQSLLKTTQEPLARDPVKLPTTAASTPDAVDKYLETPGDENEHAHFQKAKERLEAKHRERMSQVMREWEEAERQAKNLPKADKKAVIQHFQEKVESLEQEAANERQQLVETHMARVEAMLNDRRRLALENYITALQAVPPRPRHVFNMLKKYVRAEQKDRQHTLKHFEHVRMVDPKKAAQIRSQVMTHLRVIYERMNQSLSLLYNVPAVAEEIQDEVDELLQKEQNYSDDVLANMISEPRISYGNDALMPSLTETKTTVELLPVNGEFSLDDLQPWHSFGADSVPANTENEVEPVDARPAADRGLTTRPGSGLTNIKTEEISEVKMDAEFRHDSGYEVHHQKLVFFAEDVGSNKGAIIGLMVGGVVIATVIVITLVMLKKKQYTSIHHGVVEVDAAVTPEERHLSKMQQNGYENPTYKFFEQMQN
Data set [3] addresses T1, Amyloid-beta precursor protein. The experiment in a line: Inhibition of amyloid beta-42 (unknown origin) aging fibrils disaggregation at 50 uM by thioflavin-T fluorescence assay.
For data set [4], the system named is SH-SY5Y. The experiment in a line: Cytotoxicity against human SH-SY5Y cells assessed as cell viability at 10 uM after 48 hrs by MTT assay. Type of data set: cell-based. (Tetrazolium dyes change colour on reduction, which living cells bring about.)
Data set [5] deals with Caenorhabditis elegans. The data set is described as follows: Anti-Alzheimer's activity in Caenorhabditis elegans CL4176 assessed as delay in amyloid beta-induced paralysis at 500 uM after 36 hrs of amyloid beta expression. The class given is functional, organism-based.
Data set [6] has as its system Caenorhabditis elegans. The experiment in a line: Anti-Alzheimer's activity in Caenorhabditis elegans CL4176 expressing amyloid beta assessed as increase of average time of life expectancy at 500 uM (reference value: 46.9 +/- 0.54 hrs). The class given is functional.
Data set [7] relates to Caenorhabditis elegans. The experiment in a line: Reduction of amyloid beta expression in Caenorhabditis elegans CL4176 at 10 to 50 uM by Western blot analysis. The class given is functional, organism-based.
In data set [8] the test system is Caenorhabditis elegans. The experiment in a line: Anti-Alzheimer's activity in Caenorhabditis elegans CL4176 expressing amyloid beta assessed as increase of average time of life expectancy at 50 uM (reference value: 46.9 +/- 0.54 hrs). Type of data set: functional.
Data set [9] has as its target T1, Amyloid-beta precursor protein. The data set is described as follows: Inhibition of fibrils formation in aggregated amyloid beta-42 (unknown origin) assessed as short fibril formation at 50 uM after 48 hrs by transmission electron microscopy analysis.
Data set [10] concerns Caenorhabditis elegans. The experiment in a line: Anti-Alzheimer's activity in Caenorhabditis elegans CL4176 expressing amyloid beta assessed as increase of average time of life expectancy at 200 uM (reference value: 46.9 +/- 0.54 hrs). The class given is functional.
The target in data set [11] is T1, Amyloid-beta precursor protein. The experiment in a line: Inhibition of swAPP-mediated amyloid beta-42 production in human HEK293 cells at 10 uM after 48 hrs by ELISA (reference value: 100 +/-3.45%). The class given is cell-based. Further details: scale not given: the % may be the effect or the level left. A general note: ELISA stands for enzyme-linked immunosorbent assay.

Data set [12] shares this target. The experiment in a line: Inhibition of swAPP-mediated amyloid beta-42 production in human HEK293 cells at 25 uM after 48 hrs by ELISA (reference value: 100 +/-3.45%). The class given is cell-based. Set-up: scale not given: the % may be the effect or the level left.
Data set [13] has the same target. The experiment in a line: Inhibition of amyloid beta-42 (unknown origin) aging fibrils disaggregation by thioflavin-T fluorescence assay.
Data set [14] relates to SH-SY5Y. The data set is described as follows: Neuroprotective activity in human SH-SY5Y cells assessed as protection against amyloid beta-42-induced cell death at 5 to 50 uM after 48 hrs by MTT assay (reference value: 50.02 +/- 4.98%). Type of data set: functional.
Data set [15] has as its target T1, Amyloid-beta precursor protein. The data set is described as follows: Inhibition of amyloid beta-42 (unknown origin) self-mediated aggregation by thioflavin-T fluorescence assay.
Data set [16] deals with SH-SY5Y. The experiment in a line: Cytotoxicity against human SH-SY5Y cells assessed as cell viability at 1 to 50 uM after 48 hrs by MTT assay. Type of data set: cell-based.
Data set [17] has as its target T1, Amyloid-beta precursor protein. The experiment in a line: Inhibition of amyloid beta-42 (unknown origin) fibrils formation at 50 uM after 48 hrs by transmission electron microscopy analysis.
Data set [18] can be described thus: Cytotoxicity against human HEK293 cells expressing swAPP assessed as cell viability at 25 uM after 48 hrs by MTT assay. Type of data set: cell-based. To be noted: read-out: Activity.
Data set [19] addresses T1, Amyloid-beta precursor protein. The data set is described as follows: Inhibition of amyloid beta-42 (unknown origin) beta sheets structure formation at 40 uM after 48 hrs by circular dichroism spectra analysis.
Data set [20] has as its system Caenorhabditis elegans. The data set is described as follows: Anti-Alzheimer's activity in Caenorhabditis elegans CL4176 assessed as delay in amyloid beta-induced paralysis at 10 to 50 uM after 36 hrs of amyloid beta expression. Type of data set: functional, organism-based.
The target in data set [21] is T1, Amyloid-beta precursor protein. The experiment in a line: Increase of alpha-helics formation in amyloid beta-42 (unknown origin) at 40 uM after 48 hrs by circular dichroism spectra analysis.
Data set [22] has as its system Caenorhabditis elegans. The data set is described as follows: Anti-Alzheimer's activity in Caenorhabditis elegans CL4176 expressing amyloid beta assessed as increase of average time of life expectancy at 10 uM (reference value: 46.9 +/- 0.54 hrs). Type of data set: functional.

With `CC(=O)NC[C@]1(C)CCC[C@]2(C)c3ccc(C(C)C)cc3/C(=N\NC(N)=S)C[C@@H]12`, the inhibition result in data set [1], in data set [2] and in data set [3] was “inactive” throughout.

Turning to `CC(=O)NC[C@]1(C)CCC[C@]2(C)c3ccc(C(C)C)cc3/C(=N/NC(=O)c3ccncc3)C[C@@H]12`, the inhibition result in data set [1], in data set [2] and in [3] was “inactive” each time.

In the case of `CC(C)c1ccc2c(c1)CC[C@H]1[C@](C)(C/N=C\c3ccc(O)cc3O)CCC[C@]21C`, the inhibition at 10 µM in data set [1] stood at 26.1%. In addition, the Activity entry in [4] is recorded as “Non-toxic”. For the same compound, the inhibition in data set [2] came to 24.5%; in data set [3], 10.7%.

As for `CC(=O)Oc1cc(/C=N\C[C@]2(C)CCC[C@]3(C)c4ccc(C(C)C)cc4CC[C@@H]23)cc(OC(C)=O)c1OC(C)=O`, the inhibition at 10 µM in [1] stood at 48.2%. Moreover, the values for the inhibition in [2] and in data set [3] were 20.6% and 8.93%, respectively.

Turning to `CC(C)c1ccc2c(c1)CC[C@H]1[C@](C)(CNC(=O)c3cc(O)c(O)c(O)c3)CCC[C@]21C`, the inhibition at 10 µM in data set [1] was 50.8%. Moreover, the Activity entry in data set [4] is recorded as “Non-toxic”. Moreover, the inhibition in data set [2] was 74.6%; in data set [3] it was 49%.

Consider `CC(C)c1ccc2c(c1)/C(=N/NC(=O)c1ccncc1)C[C@H]1[C@](C)(CNC(=O)C(F)(F)F)CCC[C@]21C`, for which the inhibition result in data set [1], in data set [2] and in data set [3] was “inactive” each time.

In the case of `C/C=C1\[C@H]2C=C(C)C[C@]1(N)c1ccc(=O)[nH]c1C2` [HUPERZINE A], in data set [5], the result was Active. Further, the Time in [6] was found to be 48.3 h.

In the case of `CC(C)c1c(N)cc2c(c1[N+](=O)[O-])CC[C@H]1[C@](C)(CN)CCC[C@]21C`, the inhibition entry in data set [1], in data set [2] and in data set [3] was “inactive” each time.

`CC(C)c1c(N)cc2c(c1[N+](=O)[O-])CC[C@H]1[C@](C)(CNC(=O)c3ccc(O)c(O)c3)CCC[C@]21C`: the inhibition at 10 µM in [1] came out at 31.2%. For the same compound, the inhibition in data set [2] was 26.1%; in data set [3] it was 14.2%.

For the compound `CC(=O)NC[C@]1(C)CCC[C@]2(C)c3ccc(C(C)C)cc3/C(=N\NC(N)=O)C[C@@H]12`, the inhibition at 10 µM in data set [1] came to 13.3%. Further, the inhibition entry in [2] and in data set [3] was “inactive” in each case.

Take `CC(C)c1ccc2c(c1)CC[C@H]1[C@](C)(CN)CCC[C@]21C`: the inhibition entry in [1], in data set [2] and in [3] was “inactive” in each case.

On to `CC(=O)Oc1cc(C(=O)NC[C@]2(C)CCC[C@]3(C)c4ccc(C(C)C)cc4CC[C@@H]23)cc(OC(C)=O)c1OC(C)=O`, for which the inhibition at 10 µM in data set [1] turned out to be 41.8%. Also, the Activity entry in data set [4] is recorded as “Non-toxic”. Also, the inhibition was 55.3% in data set [2] and 37.6% in [3].

For the compound `COc1cc(/C=C/C(=O)CC(=O)/C=C/c2ccc(O)c(OC)c2)ccc1O` [CURCUMIN], the inhibition at 10 µM in data set [1] was determined as 37.9%. Further, the Activity entry in data set [4] was “Non-toxic”.

Take `CC(C)c1ccc2c(c1)/C(=N/O)C[C@H]1[C@](C)(CNC(=O)C(F)(F)F)CCC[C@]21C`: the inhibition at 10 µM in [1] turned out to be 34.1%. Moreover, the inhibition result in data set [2] and in data set [3] was “inactive” throughout.

For the compound `CC(C)c1c(NC(=O)/C=C/c2ccc(O)c(O)c2)cc2c(c1[N+](=O)[O-])CC[C@H]1[C@](C)(CNC(=O)/C=C/c3ccc(O)c(O)c3)CCC[C@]21C`, the result in [7], in data set [20] and in data set [21] was Active. Further, the Time in data set [8] is 50.5 h; in data set [10], 48.8 h; in data set [6], 44.7 h; in data set [22], 48.2 h. In [1], the inhibition at 10 µM turned out to be 62.4%. The inhibition entry in [9], in data set [17] and in [19] was “Active” throughout. Moreover, the Activity in data set [11] was 45.6%; in [12] it was 10.4%; in [4], “Non-toxic”; in data set [14] it was 53.5%; in data set [16], “Non-toxic”. Moreover, the inhibition result is “Dose-dependent effect” in data set [13], 92% in data set [2] and 82.8% in [3]. The IC50 in [15] was 3.96 µM. In data set [18], the viability at 48 h, 25 µM was greater than 90%.

As to `CC(=O)NC[C@]1(C)CCC[C@]2(C)c3ccc(C(C)C)cc3/C(=N/OC(=O)c3ccc(Cl)cc3)C[C@@H]12`, the inhibition at 10 µM in data set [1] was 10.4%. For the same compound, the inhibition result in data set [2] and in data set [3] was “inactive” each time.

For the compound `CC(=O)NC[C@]1(C)CCC[C@]2(C)c3ccc(C(C)C)cc3/C(=N/NC(C)=O)C[C@@H]12`, the inhibition entry in data set [1], in data set [2] and in data set [3] was “inactive” throughout.

Take `CC(=O)NC[C@]1(C)CCC[C@]2(C)c3ccc(C(C)C)cc3/C(=N/O)C[C@@H]12`: the inhibition at 10 µM in data set [1] is 41.2%. Further, the inhibition entry in [2] and in [3] was “inactive” in each case.

`CC(C)c1ccc2c(c1)C(=O)C[C@H]1[C@](C)(CNC(=O)C(F)(F)F)CCC[C@]21C`: in data set [1], the inhibition at 10 µM was 19.8%. Further, the inhibition result in data set [2] and in data set [3] was “inactive” in each case.

Turning to `CC(C)c1c(NC(=O)/C=C/c2ccc(O)c(O)c2)cc2c(c1NC(=O)/C=C/c1ccc(O)c(O)c1)CC[C@H]1[C@](C)(CNC(=O)/C=C/c3ccc(O)c(O)c3)CCC[C@]21C`, the inhibition at 10 µM in data set [1] was determined as 53.9%. Further, in data set [4], the Activity entry is “Non-toxic”. In addition, the figures for the inhibition in [2] and in [3] were 93.3% and 82.5%, respectively.

For `CC(C)c1ccc2c(c1)C(=O)C[C@H]1[C@](C)(CN)CCC[C@]21C`, the inhibition result in data set [1], in [2] and in [3] was “inactive” each time.
